Substitutions are numbered along the chain they refer to.
Key:
[1] = target: T1, ECP (Homo sapiens, UniProt P12724); assay: FACE analysis of ECP binding to heparin oligosaccharides; conditions: AMAC-labeled oligosaccharide incubated with ECP, 1% agarose gel
T1 construct: His6 (C); made in house; host or cells: E. coli BL21-CodonPlus (DE3)
T1 sequence (P12724 28-160): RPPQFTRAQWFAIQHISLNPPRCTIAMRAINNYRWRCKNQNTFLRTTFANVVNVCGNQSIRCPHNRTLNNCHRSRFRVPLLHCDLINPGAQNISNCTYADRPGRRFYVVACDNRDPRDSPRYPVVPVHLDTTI
Protocol: FIG. 2. FACE analysis to evaluate binding of ECP to various sugar-containing substrates. A, AMAC-labeled LMWH was incubated with or without ECP in PBS for 10 min at 25° C., and the binding reaction products were separated on a 1% agarose gel. The numbers above the gel indicate the molar ratio of ECP to LMWH. B, Representative oligosaccharide binding pattern of ECP. AMAC-labeled heparin dp3 (10.8 nmol), dp5 (3.3 nmol), dp7 (1.4 nmol), dp9 (1.1 nmol), LMWH (0.03 nmol) and PI-88 (0.03 nmol) were incubated with or without 10-fold molar excess of ECP, and the binding reaction products separated on a 1% agarose gel. C, Representative oligosaccharide binding pattern of EDN. AMAC-labeled heparin dp3 (10.8 nmol), dp5 (3.3 nmol), dp7 (1.4 nmol), dp9 (1.1 nmol), LMWH (0.03 nmol) and PI-88 (0.03 nmol) were incubated with or without 10-fold molar excess of ECP, and the binding reaction products separated on a 1% agarose gel.
Thus, the minimal heparin length (or disaccharide unit) required to interact with ECP was investigated by FACE (Fluorescence-assisted carbohydrate electrophoresis).
Initially, ECP was co-incubated with LMWH at various molar ratios, and the binding products were analyzed by gel electrophoresis. […]

[2] = target: T2, ECP wt (Homo sapiens, UniProt P12724); assay: Intrinsic tryptophan fluorescence titration of ECP wt with heparin oligosaccharides; format: binding; conditions: PBS at 25° C., read-out: Kd, ECP wt
T2 construct: His6 (C); made in house; host or cells: E. coli BL21-CodonPlus (DE3)
T2 sequence (P12724 28-160): T1 sequence (P12724 28-160)
Protocol: (§1) FIG. 5. ITFE profiles of ECP wt and mt1 with dp5. Tryptophan titration emission spectra of […] ECP wt or mt1 bound with dp5. The emission spectra at 340 nm were recorded. The resulting isotherms were fitted by nonlinear regression least-squares computer fit using the KaleidaGraph Synergy Software. ΔF, the relative fluorescence change, equals F0−Fobs, where F0 and Fobs represent the initial and observed fluorescence values, respectively.
(§2) The binding affinities of wild-type and mutant ECP for heparin oligosaccharides were subsequently monitored by intrinsic tryptophan fluorescence titration (Lau, E. K., et al. (2004) The Journal of biological chemistry 279, 22294-22305).
(§3) Binding of ECP to heparin was monitored by changes in intrinsic tryptophan fluorescence emission (IFTE). ECP (200 nM) in PBS at 25° C. was titrated with small aliquots of a high concentration of pentasaccharides with minimal dilution (<2%). Protein fluorescence measurements were recorded 2 min after each addition on a Hitachi 8000 spectrofluorimeter at emission wavelength of 340 nm using an excitation wavelength of 280 nm. ΔF, the relative fluorescence change, equals F0−Fobs, where F0 and Fobs represent the initial and observed fluorescence values, respectively. […]

[3] = target: C1 peptide (Homo sapiens, UniProt P12724); assay: Tryptophan fluorescence titration of C1 peptide with heparin oligosaccharides; format: binding; conditions: 1 μM peptide; tryptophan fluorescence at 340 nm; read-out: Kd, C1 peptide
Protocol: FIG. 10. Titration profiles of synthetic peptides by synthetic heparin oligosaccharides. Titrations were carried out on 1 μM peptides in the presence of heparin oligosaccharides. The Kd of each peptide-oligosaccharide interaction was determined by measuring the fluorescence change of intrinsic tryptophan at 340 nm. Data were fitted to a single-binding-site curve using nonlinear least-squares analysis.
as §3

[4] = target: T3, ECP mt1 (Homo sapiens, UniProt P12724, K65A/R61A/R63A/W62A); assay: Intrinsic tryptophan fluorescence titration of ECP mt1 with heparin oligosaccharides; format: binding; conditions: PBS at 25° C., read-out: Kd, ECP mt1
T3 construct: recombinant mature ECP was injected into the rat circulation; His6 (C); made in house; host or cells: E. coli BL21-CodonPlus(DE3)
T3 sequence (P12724 28-160 R61A/W62A/R63A/K65A): T1 sequence (P12724 28-160) with R34A, W35A, R36A, K38A
Protocol: as §1
Amino acid residues R34, W35, R36, and K38 of ECP were simultaneously substituted to alanine using QuickChange site-directed mutagenesis (Stratagene, La Jolla, Calif.) and the resultant mutant was named ECP mt1. […]
as §2
Binding of ECP to heparin was monitored by changes in intrinsic tryptophan fluorescence emission (IFTE). […] Protein fluorescence measurements were recorded 2 min after each addition on a Hitachi 8000 spectrofluorimeter at emission wavelength of 340 nm using an excitation wavelength of 280 nm. ΔF, the relative fluorescence change, equals F0−Fobs, where F0 and Fobs represent the initial and observed fluorescence values, respectively. […]

[5] = tested on: ECP binding to Beas-2B cells; assay: Competitive inhibition of MBP-ECP binding to Beas-2B cells (cell ELISA); format: cell-based, human; conditions: Fifty micrograms per mililiter oligosaccharide; 5 μg/ml MBP-ECP; 4° C.
Protocol: FIG. 3. Heparin oligosaccharides inhibit ECP binding to cells. […] The amount of MBP-ECP bound to cells without GAG treatment was set to 100%. C, control (cells were incubated with MBP.) The data shown are the means of triplicate experiments.
FIG. 7. Synthetic peptides inhibit ECP binding to cells. […] The data shown are the means of triplicate experiments.
Beas-2B, a human bronchial epithelial cell line, was cultured in RPMI 1640 medium (Sigma-Aldrich) supplemented with heat-inactivated 10% fetal bovine serum (Gibco/Invitrogen, Carlsbad, Calif.).
The ability of MBP-ECP to bind cells in the presence of serial dilutions of oligosaccharides or peptides was determined as described (Fan, T. C., et al. (2007) Traffic 8, 1778-1795). At the present invention, synthetic heparins (dp3-9) were tested for their ability to interfere with ECP binding to Beas-2B cells. Briefly, confluent monolayers of Beas-2B cells in 96-well plates were pretreated with various concentrations of oligosaccharides or peptides in serum-free RPMI 1640 medium at 4° C. for 30 min before incubation with 5 μg/ml MBP-ECP at 4° C. for 1 h. The cells were then washed with ice-cold PBS and fixed with 2% PFA at room temperature for 15 min prior to blocking with 2% BSA/PBS at room temperature for 90 min. The level of bound MBP-ECP was quantified by ELISA analysis. MBP-ECP was detected using mouse monoclonal anti-MBP and goat anti-mouse horseradish peroxidase (HRP)-conjugated secondary antibody, followed by the enhanced chemiluminescence detection system. The amount of MBP-ECP bound to cells without oligosaccharide or peptide treatment was set to 100%.

[6] = tested on: Beas-2B cell surface heparan sulfate; conditions: 4° C. for 30 min
Protocol: Human Beas-2B cells were incubated with synthetic peptide (A, TAT; B, D1) at 4° C. for 30 min and then washed, fixed and analyzed. Synthetic peptide was identified with mouse anti-biotin monoclonal antibody and FITC-conjugated goat anti-mouse antibody. The distribution of synthetic peptide was examined by confocal microscopy.
To investigate whether the heparin binding QRRCK motif on EDN, corresponding to the “RWRCK” motif on ECP (SEQ ID NO: 8), was directly responsible for heparan sulfate binding on cell surface, Beas-2B cell-peptide binding was conducted using a synthetic peptide, D1 (SEQ ID NO: 4), and a positive control, TAT (SEQ ID NO: 6) purchased from Genemed Synthesis (South San Francisco, Calif.).

[7] = AMAC-labeled LMWH, increasing peptide concentrations, room temperature 15 min
Protocol: FIG. 9. FACE analysis of synthetic peptides. AMAC-labeled LMWH were incubated without or with increasing concentrations of C1, TAT, D1 and R1 peptides at room temperature for 15 min. Samples were loaded and separated by agarose gel electrophoresis as described for FIG. 2.
Synthetic heparin oligosaccharide (FIG. 1) (Lee, C. J., et al. (2004) J Am Chem Soc 126, 476-477), low molecular weight heparin (LMWH) and PI-88 (kindly provided by Progen Inc., Australia) were labeled with 2-aminoacridone (AMAC) as described (Calabro, A., et al. (2000) Glycobiology 10, 273-281). AMAC-oligosaccharide and proteins were incubated at room temperature for 15 min, loaded onto 1% gels and electrophoresed as described (Holmes, O., et al. (2007) J Mol Biol 367, 395-408).
In addition, because EDN contains a conventional heparin binding sequence, the corresponding peptide, D1 (SEQ ID NO: 4), was also synthesized and tested.

[8] = tested on: Beas-2B cells; conditions: biotinylated peptides, 1 h at 4° C.
Protocol: FIG. 7. Synthetic peptides inhibit ECP binding to cells. A, Beas-2B cells were preincubated with peptides in RPMI 1640 medium for 30 min at 4° C. before incubation with MBP-ECP for an additional 1 h. After treatment, the cells were washed with PBS and fixed with PFA. The level of bound MBP-ECP was assessed by ELISA. The amount of MBP-ECP bound to cells without peptide treatment was set to 100%. The data shown are the means of triplicate experiments. B, Beas2-B cells were incubated with biotinylated peptides for 1 h at 4° C. The amount of peptides bound to cells was assessed as for FIG. 3.
To investigate whether the RWRCK (SEQ ID NO: 8) motif is directly responsible for heparin binding, cell ELISA was conducted using a synthetic peptide, C1 (SEQ ID NO: 3), along with a positive control peptide derived from HIV-TAT, TAT (SEQ ID NO: 6) (Vives, E., et al. (1997) The Journal of biological chemistry 272, 16010-16017; Ziegler, A. and Seelig, J. (2004) Biophysical journal 86, 254-263). […] Therefore, synthetic peptides with heparin binding activity may compete with ECP for cellular binding. Furthermore, the cell surface binding ability of peptides was tested using cell ELISA assay.

[9] = PBS buffer at 25° C.; HMWH 10-20 μM
Protocol: FIG. 11. Isothermal titration calorimetry of heparin-peptide interaction. The top panels show the differential power time course. Raw data for sequential 6-μl injections of each synthetic peptide in PBS buffer at 25° C. TAT (positive control), B, R1 (negative control), C, C1, and D, D1 into the sample cell containing 1.4 ml HMWH solution (10-20 μM). The total heat released in each injection is proportional to the area under the corresponding peak. […] The solid line represents a non-linear least squares of the reaction heat for the injection.

[10] = tested on: Beas-2B cell line; conditions: data taken from reference (Fan et al. 2007), read-out: IC50 for cytotoxic ECP; cited from earlier work

CO[C@H]1O[C@H](COS(=O)(=O)O)[C@@H](O[C@@H]2O[C@@H](C(=O)O)[C@@H](O[C@H]3O[C@H](COS(=O)(=O)O)[C@@H](O[C@@H]4O[C@@H](C(=O)O)[C@@H](O[C@H]5O[C@H](COS(=O)(=O)O)[C@@H](O)[C@H](O)[C@H]5NS(=O)(=O)O)[C@H](O)[C@H]4OS(=O)(=O)O)[C@H](O)[C@H]3NS(=O)(=O)O)[C@H](O)[C@H]2OS(=O)(=O)O)[C@H](O)[C@H]1NS(=O)(=O)O [dp5]
binding to ECP (FACE) [1]: shortest heparin fragment that retained the ability to bind ECP | Kd [2]: 140 nM | Kd [3]: 275 nM | Kd [4]: 568 nM | inhibition of ECP binding to cells [5]: 50%

NYQRRCKNQNK-biotin [D1]
peptide binding to cell surface (confocal microscopy) [6]: bound to Beas-2B cell surface heparan sulfate | interaction with LMWH (FACE) [7]: bound heparin as tightly as C1 | cell surface binding ability of peptides [8]: bound to the cell surface | heat release on binding to HMWH (ITC) [9]: exothermal reaction modes were clearly observed

B1: ECP wt: Recombinant human eosinophil cationic protein with C-terminal His6 tag, expressed in E. coli (protein, UniProt P12724 28-160, looked up)
Eosinophil cationic protein: T1 sequence (P12724 28-160)
modifications: C-terminal His6 tag
notes: Recombinant human eosinophil cationic protein with C-terminal His6 tag, expressed in E. coli
IC50 [10]: 16000 nM

From patent US8399416B2, “Method of using heparin binding motif for treating asthma” (National Tsing Hua University, priority 2008, dated 2013)
